Experimental data from patent US20120022294A1, “Axomadol or a Metabolite Thereof for Use in the Treatment of Irritable Bowel Syndrome” (priority 2010, published 2012).
Structures can show the parent of a compound that is named as a salt. Where two headings read alike, the source gives them in different places.

What was measured:
[1] = system: isolated guinea pig ileum; assay: twitch contractions (electrically induced) of the isolated guinea pig ileum; conditions: for IC50: Cavia porcellus; for threshold of reduction of electrically induced contractions: concentration-dependent; for % reversal by naloxone: naloxone 10^−6 M added after last application of test compound; for inhibitory effect reversed after addition of naloxone: opioid receptor antagonist naloxone 1 μM; for maximal reduction: twitch reaction remaining as % of pre-value at highest concentration
Protocol: It was investigated whether axomadol and (+)-O-demethyl axomadol are able to modulate gastrointestinal motility.
Male guinea pigs (PBW, Charles River, Kiβlegg, FRG) weighing 250-350 g were used for the study. The animals were kept under standard housing conditions: light/dark rhythm (06.00-18.00 h light, 18.00-6.00 h dark); room temperature 22±2° C., relative air humidity 55±5%; 15 air changes per hour, air movement <0.2 m/sec. The animals were given water and an exclusive diet of “Herilan RM 204” (Eggersmann Company, Rinteln/FRG) ad libitum. Before experimental preparation they were kept in groups of up to 5 animals in type IV Makrolon cages (Ebeco Company, Castrop-Rauxel, FRG). There were at least 4 days between delivery and testing.
Axomadol hydrochloride and (+)-O-demethyl axomadol hydrochloride were dissolved in aqua bidest. Final concentrations in the organ bath ranged from 10^−7 to 3.2·10^−4 M and from 10^−8 to 3.2·10^−5 M for axomadol hydrochloride and (+)-O-demethyl axomadol hydrochloride respectively (cumulative drug application). Naloxone (10^−6 M) was used as opioid antagonist.
A four-compartment organ bath (Dept. Biotechnology, Grunenthal GmbH) consisting of 20 ml acrylic glass compartments, organ supports and force transducers (F10 force transducers, Type 375, HSE, FRG) was used for the measurement of isometric contractions. The organ bath was filled and emptied by means of a semi-automatic dosing arrangement. All experiments were performed at […]. The nutrient solution was gassed with carbogen (95% O2/5% CO2)) both in the nutrient storage chamber and in the organ bath starting 30 min before the beginning and throughout the experiment.
The nutrient solution had the following composition:
Parameter: contraction force [g]
Guinea pigs were killed in CO2-atmosphere and the ileum was dissected free from adhering tissue, removed and suspended in the organ bath. After an incubation period of at least 30 min, isometric contractions (twitch reactions) were elicited by transmural stimulation pulses (duration 1 ms, amplitude 180 mA at 0.03 Hz; stimulator A310, WPI, FRG). A pre-tension of 1 g was applied to the preparations and constantly readjusted during the equilibration period (at least 30 minutes) while the nutrient was changed twice.
After having registered the pre-value, test compounds were added to the organ bath in cumulative concentration steps as indicated. The exposure time for each concentration was 6 minutes. After the last application of the test compound, the opioid-antagonist naloxone (10^−6 M) was added without previous wash out of the test compound.
1.5 Evaluation Data was calculated as the mean electrically stimulated contraction force during a period of 4 to 6 minutes after compound application and expressed as percentage of the pre-value. The mean contraction force during a period of 2 minutes before compound application was taken as pre-value. All results were expressed as means±s.e.m. of ≧4 single experiments. For determination of IC50 values, regression lines (y=f log x) were constructed and IC50 values with s.e.m. were calculated using a computer-assisted regression analysis program (Grünenthal GmbH). The reversal of the test compound's activity by the antagonist was determined according to the following equation:
with max. effect being: 100%−% reduction of pre-value of twitch reaction at highest dose of test compound.

[2] = system: visceral hyperalgesia induced by rectal administration of mustard oil in mice; assay: visceral hyperalgesia / mustard oil colitis in mice; type: in vivo
Text: The effects of axomadol hydrochloride on visceral hyperalgesia were studied, which was induced by rectal administration of mustard oil in mice (according to Laird J M, Martinez-Caro L, Garcia-Nicas E, Cervero F. (2001) A new model of visceral pain and referred hyperalgesia in the mouse. Pain 92: 335-42). The typical visceral pain behaviour was quantified in three parameters: During the first minutes after mustard oil administration spontaneous visceral pain behaviour occurs. Following this period of spontaneous pain, referred allodynia and hyperalgesia can be quantified by means of von Frey filaments of different strength stimulating the abdomen of the mice.
Male NMRI mice (28-38 g body weight) from a commercial breeder (Iffa Credo, France) were used. The animals were housed under standardized conditions: light/dark cycle (06.00-18.00 h light, 18.00-06.00 h dark), room temperature 20-24° C., relative air humidity 35-70%, 15 air changes per hour, air movement <0.2 m/sec, tap water and standard diet ad libitum, macrolon type 4 cages with maximally 30 animals per cage. There were at least 5 days between delivery and start of the experiment.
Axomadol hydrochloride was dissolved in vehicle solution and injected intra-venously.
Doses: 0.464; 1.0; 2.15; 4.64; 10.0 mg/kg i.v. Administration volume: 10 ml/kg Vehicle solution: 0.9% NaCl solution (Fresenius, Bad Homburg, FRG) Mustard oil was dissolved in vehicle solution and administered intra-rectally Dose: 50 μl of a 3.5 Vol.−% solution per animal Vehicle solution: PEG 200
2.3.1 Induction of Colitis Animals were habituated to the test conditions for 20-30 min and stimulated with von Frey filaments onto the abdominal wall. 10 stimulations with von Frey filaments of 1, 4, 8, 16, and 32 mN were applied in ascending order (i.e. 10×1 mN, 10×4 mN, etc.). Animals with more than 25 positive reactions during this phase were excluded. Vaseline was applied in the perianal area to avoid the stimulation of somatic areas with the irritant chemical. Colitis is induced by rectal administration of 50 μl mustard oil (3.5%). Control animals are treated with vehicle (50 μl PEG200).
Axomadol hydrochloride or vehicle was given intravenously (i.v.) 5 min before mustard oil. Seven animals were tested per group. The following parameters were counted:
2-12 min after mustard oil: • 1. Spontaneous pain score: counting and scoring of visceral pain behaviours (Score 1-2, 1=licking of abdominal wall, 2=stretching, squashing, mounting, backward-movement or contraction of the flank muscles). 20-40 min after mustard oil • 2. […]
Data were analysed by means of two-factor analysis of variance (ANOVA) with repeated measures. Significance of treatment-, time- or treatment x time interaction effects was analyzed by means of Wilks' Lambda statistics. […]

[3] = isolated guinea pig ileum, mean ± s.e.m., read-out: IC50 value, reduction of electrically induced contractions
[4] = twitch contractions of the guinea pig ileum, cumulative application, read-out: IC50

Row | SMILES | IC50 [1, 3] [µM] | IC50 [1, 4] [µM] | twitch reactions, reduction to % of pre-value ([1]; increasing concentrations up to 32 μM) | threshold of reduction of electrically induced contractions ([1]; isolated guinea pig ileum) | % reversal by naloxone [1] [%] | inhibitory effect reversed after addition of naloxone [1] [%] | maximal reduction [1] [% pre-value] | inhibition of all three visceral pain parameters ([2]; 0.464, 1.0, 2.15, 4.64 and 10.0 mg/kg i.v.) | ED50 (95% confidence intervals), referred allodynia ([2]; i.v. 5 min before mustard oil, 1 mN von Frey filament, 20-40 min after mustard oil) | ED50 (95% confidence intervals), spontaneous visceral pain behaviour ([2]; i.v. 5 min before mustard oil, 2-12 min after mustard oil) | ED50 (95% confidence intervals), referred hyperalgesia ([2]; i.v. 5 min before mustard oil, 16 mN von Frey filament, 20-40 min after mustard oil) | twitch reactions, reduction to % of pre-value ([1]; increasing concentrations up to 320 μM)
1 | CN(C)CC1CCC(O)CC1(O)c1cccc(O)c1 (single isomer, unassigned; (+)) [(+)-O-demethyl axomadol hydrochloride, 6-dimethylaminomethyl-1-(3-hydroxyphenyl)-cyclohexane-1,3-diol] | 0.43 ± 0.09 | 0.43 ± 0.09 | 16.6±3 % of pre-value | around 0.032 μM | 69.1 | 69.1 | 16.6 | – | – | – | – | –
2 | COc1cccc([C@@]2(O)C[C@H](O)CC[C@@H]2CN(C)C)c1 (racemic) [axomadol hydrochloride, (1RS,3RS,6RS)-6-dimethylaminomethyl-1-(3-methoxyphenyl)-cyclohexane-1,3-diol] | 39.2 ± 2.8 | 39.2 ± 2.8 | – | around 10 μM | 83.4 | 83.4 | 32.1 | dose dependent and significant inhibition | 6.13 (5.56-6.60-4.75) mg/kg i.v. | 2.62 (1.79-4.05) mg/kg i.v. | 2.72 (1.58-5.46) mg/kg i.v. | 32.1 % of pre-value
